For orientation: melting point means the temperature of the solid-liquid transition.

Structures are written as SMILES.

In turn, `CCCCC1(C(F)(F)F)c2cc(Cl)ccc2Nc2c1cc[nH]c2=O` (centres unmarked) [Example 18, 5-Butyl-7-chloro-5-trifluoromethyl-5,10-dihydrobenzo[b]-1,7-naphthyridin-1(2H)-one] returned a melting point of 245 to 248 °C.

On to `O=c1[nH]ccc2c1Nc1ccc(Cl)cc1C2(Cc1ccccn1)C(F)(F)F` (centres unmarked) [Example 19, 7-Chloro-5-(2-pyridylmethyl)-5-trifluoromethyl-5,10-dihydrobenzo[b]-1,7-naphthyridin-1(2H)-one], for which the melting point lay in the range of 270 to 275 °C.

`O=c1[nH]ccc2c1Nc1ccc(Cl)cc1C2(CCC1CC1)C(F)(F)F` (centres unmarked) [Example 20, 7-Chloro-5-(2-cyclopropylethyl)-5-trifluoromethyl-5,10-dihydrobenzo[b]-1,7-naphthyridin-1(2H)-one] registered a melting point of 220 to 222 °C.

`O=c1[nH]ccc2c1Nc1ccc(Cl)cc1C2(C#CC1CC1)C(F)(F)F` (centres unmarked) [Example 21, 7-Chloro-5-cyclopropylethynyl-5-trifluoromethyl-5,10-dihydrobenzo[b]-1,7-naphthyridin-1(2H)-one]: the melting point was 247 to 250 °C.

As for `O=c1[nH]ccc2c1Nc1ccc(Cl)cc1C2(CNC1CC1)C(F)(F)F` (centres unmarked) [Example 22, 7-Chloro-5-(N-cyclopropylaminomethyl)-5-trifluoromethyl-5,10-dihydrobenzo[b]-1,7-naphthyridin-1(2H)-one], the melting point lay in the range of 230 to 235 °C.

Consider `O=c1[nH]ccc2c1Nc1ccc(Cl)cc1C2(CO)C(F)(F)F` (centres unmarked) [Example 23, 7-Chloro-5-hydroxymethyl-5-trifluoromethyl-5,10-dihydrobenzo[b]-1,7-naphthyridin-1(2H)-one], for which the melting point is 270 to 275 °C.

Regarding `CCCOCC1(C(F)(F)F)c2cc(Cl)ccc2Nc2c1cc[nH]c2=O` (centres unmarked) [Example 27, 7-Chloro-5-(n-propoxymethyl)-5-trifluoromethyl-5,10-dihydrobenzo[b]-1,7-naphthyridin-1(2H)-one], the melting point lay in the range of 162 to 165 °C.

On to `CC(C)OCC1(C(F)(F)F)c2cc(Cl)ccc2Nc2c1cc[nH]c2=O` (centres unmarked) [Example 28, 7-Chloro-5-(i-propoxymethyl)-5-trifluoromethyl-5,10-dihydrobenzo[b]-1,7-naphthyridin-1(2H)-one], for which the melting point lay within 185 to 190 °C.

On to `COCCC1(C(F)(F)F)c2cc(Cl)ccc2Nc2c1cc[nH]c2=O` (centres unmarked) [Example 29, 7-Chloro-5-(2-methoxyethyl)-5-trifluoromethyl-5,10-dihydrobenzo[b]-1,7-naphthyridin-1(2H)-one], for which the melting point fell in the range of 268 to 271 °C.

Regarding `CC(C)NCC1(C(F)(F)F)c2cc(Cl)ccc2Nc2c1cc[nH]c2=O` (centres unmarked) [Example 30, 7-Chloro-5-(i-propylaminomethyl)-5-trifluoromethyl-5,10-dihydrobenzo[b]-1,7-naphthyridin-1(2H)-one], the melting point is 235 to 240 °C.

`CC(C)N(C)CC1(C(F)(F)F)c2cc(Cl)ccc2Nc2c1cc[nH]c2=O` (centres unmarked) [Example 31, 7-Chloro-5-(N-methyl-N-i-propylaminomethyl)-5-trifluoromethyl-5,10-dihydrobenzo[b]-1,7-naphthyridin-1(2H)-one] returned a melting point of 105 to 110 °C.

In turn, `O=c1[nH]ccc2c1Nc1ccc(Cl)cc1C2(CNC1CC1)C(F)(F)F` (centres unmarked) [Example 32, 7-Chloro-5-(cyclopropylaminomethyl)-5-trifluoromethyl-5,10-dihydrobenzo[b]-1,7-naphthyridin-1(2H)-one] returned a melting point of 242 to 245 °C.

Turning to `CCCNCC1(C(F)(F)F)c2cc(Cl)ccc2Nc2c1cc[nH]c2=O` (centres unmarked) [Example 33, 7-Chloro-5-(n-propylaminomethyl)-5-trifluoromethyl-5,10-dihydrobenzo[b]-1,7-naphthyridin-1(2H)-one], the melting point fell in the range of 243 to 245 °C.

`O=c1[nH]ccc2c1Nc1ccc(Cl)cc1C2(CNC1CCC1)C(F)(F)F` (centres unmarked) [Example 34, 7-Chloro-5-(cyclobutylaminomethyl)-5-trifluoromethyl-5,10-dihydrobenzo[b]-1,7-naphthyridin-1(2H)-one] gave a melting point of 250 to 254 °C.

Compound `CC(C)CNCC1(C(F)(F)F)c2cc(Cl)ccc2Nc2c1cc[nH]c2=O` (centres unmarked) [Example 35, 7-Chloro-5-(i-butylaminomethyl)-5-trifluoromethyl-5,10-dihydrobenzo[b]-1,7-naphthyridin-1(2H)-one] registered a melting point of 210 to 215 °C.

As to `CC(C)OCC1(C(F)(F)F)c2cc(Cl)ccc2Nc2c1cc[nH]c2=O` (centres unmarked) [Example 36, 7-Chloro-5-(i-propoxymethyl)-5-trifluoromethyl-5,10-dihydrobenzo[b]-1,7-naphthyridin-1(2H)-one], the melting point lay within 195 to 197 °C.

Compound `CC(C)SCC1(C(F)(F)F)c2cc(Cl)ccc2Nc2c1cc[nH]c2=O` (centres unmarked) [Example 44, 7-Chloro-5-(i-propylsulfanylmethyl)-5-trifluoromethyl-5,10-dihydrobenzo[b]-1,7-naphthyridin-1(2H)-one] yielded a melting point of 220 to 221 °C.

`CC(C)SCC1(C(F)(F)F)c2cc(F)ccc2Nc2c1cc[nH]c2=O` (centres unmarked) [Example 45, 7-Fluoro-5-(i-propylsulfanylmethyl)-5-trifluoromethyl-5,10-dihydrobenzo[b]-1,7-naphthyridin-1(2H)-one] had a melting point of 215 to 216 °C.

Compound `CC(C)(C)SCC1(C(F)(F)F)c2cc(Cl)ccc2Nc2c1cc[nH]c2=O` (centres unmarked) [Example 46, 7-Chloro-5-(t-butylsulfanylmethyl)-5-trifluoromethyl-5,10-dihydrobenzo[b]-1,7-naphthyridin-1(2H)-one] showed a melting point of 247 to 249 °C.

The compound `CCCCC1(C)c2cc(Cl)ccc2Nc2c1cc[nH]c2=O` (centres unmarked) [Example 61a, 7-Chloro-5-(n-butyl)-5-methyl-5,10-dihydrobenzo[b]-1,7-naphthyridin-1(2H)-one] had a melting point of 177 to 179 °C.

In the case of `CCOCCC1(C(F)(F)F)c2cc(Cl)ccc2Nc2c1cc[nH]c2=O` (centres unmarked) [Example 62, 7-Chloro-5-(ethoxyethyl)-5-trifluoromethyl-5,10-dihydrobenzo[b]-1,7-naphthyridin-1(2H)-one], the melting point was 240 to 245 °C.

In turn, `CCCCC1(C#N)c2cc(Cl)ccc2Nc2c1cc[nH]c2=O` (centres unmarked) [Example 63, 7-Chloro-5-(n-butyl)-5-cyano-5,10-dihydrobenzo[b]-1,7-naphthyridin-1(2H)-one] registered a melting point of 182 to 185 °C.

Turning to `CCCCC1(CO)c2cc(Cl)ccc2Nc2c1cc[nH]c2=O` (centres unmarked) [Example 64, 7-Chloro-5-(n-butyl)-5-(hydroxymethyl)-5,10-dihydrobenzo[b]-1,7-naphthyridin-1(2H)-one], the melting point was in the range of 260 to 265 °C.

On to `CCCCC1(C(F)F)c2cc(Cl)ccc2Nc2c1cc[nH]c2=O` (centres unmarked) [Example 64a, 7-Chloro-5-(n-butyl)-5-difluoromethyl-5,10-dihydrobenzo[b]-1,7-naphthyridin-1(2H)-one], for which the melting point was 198 to 200 °C.

Take `CC(C)OCC1(C(F)F)c2cc(Cl)ccc2Nc2c1cc[nH]c2=O` (centres unmarked) [Example 64b, 7-Chloro-5-(i-propoxymethyl)-5-difluoromethyl-5,10-dihydrobenzo[b]-1,7-naphthyridin-1(2H)-one]: the melting point lay in the range of 138 to 142 °C.

In turn, `CCCCC1(C(C)(F)F)c2cc(Cl)ccc2Nc2c1cc[nH]c2=O` (centres unmarked) [Example 65, 7-Chloro-5-(n-butyl)-5-(1,1-difluoroethyl)-5,10-dihydrobenzo[b]-1,7-naphthyridin-1(2H)-one] returned a melting point of 120 to 122 °C.

For the compound `CCCCC1(C(C)(F)F)c2cc(F)ccc2Nc2c1cc[nH]c2=O` (centres unmarked) [Example 66, 5-(n-Butyl)-5-(1,1-difluoroethyl)-7-Fluoro-5,10-dihydrobenzo[b]-1,7-naphthyridin-1(2H)-one], the melting point was 267 to 270 °C.

In turn, `CCCCC1(C(C)(F)F)c2cc(C#N)ccc2Nc2c1cc[nH]c2=O` (centres unmarked) [Example 67, 7-Cyano-5-(n-butyl)-5-(1,1-difluoroethyl)-5,10-dihydrobenzo[b]-1,7-naphthyridin-1(2H)-one] yielded a melting point of 132.2 to 134.7 °C.

With `CCOCC1(C(C)(F)F)c2cc(Cl)ccc2Nc2c1cc[nH]c2=O` (centres unmarked) [Example 68, 7-Chloro-5-(ethoxymethyl)-5-(1,1-difluoroethyl)-5,10-dihydrobenzo[b]-1,7-naphthyridin-1(2H)-one], the melting point fell in the range of 265 to 267 °C.
